The text below walks through data of patent US6818445B2 (Synaptic Pharmaceutical Corporation, priority 1994, dated 2004).

One assay has as its target human Y4 receptor (Homo sapiens, UniProt P50391). Format: binding. The following applies: Table 14; for Ki: read-out: Binding Affinity (Ki (nM) vs. ^125I-PYY) Human Receptor Y4.
The test system of assay [1] is food intake of 24 h food-deprived rats. Kind of assay: Food intake in food-deprived rats. The note with it: 30 mg/kg i.p. after 24 h food deprivation, percentage of intake compared to control rats. Type of assay: in vivo, rat.
Description: At the end of the equilibration period, food is removed from the animals for 24 hours starting at 8:00 a.m. At the end of the fasting period compound or vehicle may be administered to the animals orally or by injection intraperitoneally or intravenously. After 10-60 min. food is returned to the animals and their food intake is monitored at various time periods during the following 24 hour period. The food intake of animals treated with test compound may be calculated as a percentage of the food intake of control animals (i.e., animals treated with vehicle). Alternatively, food intake for each group of animals subjected to a particular experimental condition may be expressed as the mean±S.E.M.
Therefore, the Y5 antagonists of Table 14 were administered by intraperitoneal injection at a dose of 30 mg/kg to conscious rats following a 24 h food deprivation. […] Measurements were performed two hours after administration of the test compound.
The target of a further assay is T1, human Y1 receptor (Homo sapiens, UniProt P25929).
T1 sequence (P25929 1-384): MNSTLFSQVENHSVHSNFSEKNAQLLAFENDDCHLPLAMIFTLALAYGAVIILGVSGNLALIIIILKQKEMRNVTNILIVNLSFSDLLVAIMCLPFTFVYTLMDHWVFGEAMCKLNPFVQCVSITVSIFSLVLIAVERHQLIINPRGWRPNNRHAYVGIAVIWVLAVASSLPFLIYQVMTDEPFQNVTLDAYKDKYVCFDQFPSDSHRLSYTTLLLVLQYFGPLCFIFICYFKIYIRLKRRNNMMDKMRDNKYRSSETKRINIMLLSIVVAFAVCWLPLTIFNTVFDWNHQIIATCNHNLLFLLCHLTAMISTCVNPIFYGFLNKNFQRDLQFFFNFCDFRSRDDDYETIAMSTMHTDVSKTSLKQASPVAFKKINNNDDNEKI
The note with it: read-out: Binding Affinity (Ki (nM) vs. ^125I-PYY) Human Receptor Y1; Table 14.

Another assay addresses T2, human Y2 receptor (Homo sapiens, UniProt P49146).
T2 sequence (P49146 1-381): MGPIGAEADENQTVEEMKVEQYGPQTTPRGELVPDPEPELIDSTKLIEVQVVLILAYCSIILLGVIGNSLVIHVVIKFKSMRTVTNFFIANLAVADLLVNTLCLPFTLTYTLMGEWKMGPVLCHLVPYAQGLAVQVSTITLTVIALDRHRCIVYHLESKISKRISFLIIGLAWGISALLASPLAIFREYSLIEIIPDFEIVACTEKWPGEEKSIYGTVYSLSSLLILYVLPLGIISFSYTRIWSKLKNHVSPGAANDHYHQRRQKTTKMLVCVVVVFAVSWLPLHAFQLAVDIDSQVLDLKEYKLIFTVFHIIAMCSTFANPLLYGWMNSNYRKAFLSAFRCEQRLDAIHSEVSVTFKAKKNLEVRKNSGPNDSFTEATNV
Type of assay: binding. The note with it: Table 14; for Ki: read-out: Binding Affinity (Ki (nM) vs. ^125I-PYY) Human Receptor Y2.

A further assay concerns the target T3, human 5HT1F receptor (Homo sapiens, UniProt P30939).
T3 sequence (P30939 1-366): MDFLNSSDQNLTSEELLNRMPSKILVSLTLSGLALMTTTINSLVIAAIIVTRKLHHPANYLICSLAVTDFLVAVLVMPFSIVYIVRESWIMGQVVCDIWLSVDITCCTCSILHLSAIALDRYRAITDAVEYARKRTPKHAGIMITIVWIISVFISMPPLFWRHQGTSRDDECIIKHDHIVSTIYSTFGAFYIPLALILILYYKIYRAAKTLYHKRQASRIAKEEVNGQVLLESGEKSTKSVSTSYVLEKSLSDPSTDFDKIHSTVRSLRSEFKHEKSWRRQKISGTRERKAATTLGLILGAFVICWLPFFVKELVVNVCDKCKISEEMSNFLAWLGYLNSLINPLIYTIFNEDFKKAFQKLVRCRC
Description: Binding to human 5HT1F receptor, [3H]serotonin.

For the next assay, the target named is human 5HT1Dβ receptor (Homo sapiens, UniProt P28222). Kind of assay: Binding to human 5HT1Dβ receptor, [3H]serotonin. The following applies: cloned human receptor; read-out: Receptor (pKi) 5HT1Dβ (converted).
Chain of human 5HT1Dβ receptor (P28222 whole entry): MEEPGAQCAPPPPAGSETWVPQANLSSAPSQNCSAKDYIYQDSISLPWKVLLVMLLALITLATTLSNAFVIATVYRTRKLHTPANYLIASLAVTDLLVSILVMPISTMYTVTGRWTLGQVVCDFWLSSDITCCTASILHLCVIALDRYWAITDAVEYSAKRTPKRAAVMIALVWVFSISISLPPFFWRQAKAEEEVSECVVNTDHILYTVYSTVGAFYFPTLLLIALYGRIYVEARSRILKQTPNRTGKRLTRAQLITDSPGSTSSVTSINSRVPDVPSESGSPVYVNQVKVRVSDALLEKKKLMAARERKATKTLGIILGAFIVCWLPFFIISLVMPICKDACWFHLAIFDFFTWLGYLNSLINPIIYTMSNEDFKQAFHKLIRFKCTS
The target in a further assay is human 5HT1E receptor (Homo sapiens, UniProt P28566). Kind of assay: Binding to human 5HT1E receptor, [3H]serotonin.
Chain of human 5HT1E receptor (P28566 whole entry): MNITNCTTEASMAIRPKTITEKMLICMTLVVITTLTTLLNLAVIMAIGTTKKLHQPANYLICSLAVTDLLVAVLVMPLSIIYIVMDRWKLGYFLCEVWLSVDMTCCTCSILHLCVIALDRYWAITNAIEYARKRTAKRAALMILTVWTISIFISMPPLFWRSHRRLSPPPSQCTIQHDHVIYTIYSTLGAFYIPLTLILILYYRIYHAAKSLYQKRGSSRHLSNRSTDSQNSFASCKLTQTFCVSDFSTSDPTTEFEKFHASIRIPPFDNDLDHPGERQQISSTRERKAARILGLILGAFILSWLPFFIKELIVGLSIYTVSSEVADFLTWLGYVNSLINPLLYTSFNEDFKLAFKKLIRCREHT
Assay [2] concerns NPY-induced feeding behavior in satiated rats. Kind of assay: NPY-induced food intake in satiated rats. Format: in vivo, rat. The following applies: for Food intake (g) mean ± S.E.M., NPY + compound: compound 10 mg/kg i.p., then 300 pmole NPY i.c.v., 4 hours after NPY.
Description: The rats are individually housed in stainless steel cages and maintained on an 11:13 h light-dark cycle (lights off at 18:00 h) at a controlled temperature of 21-23° C. at all times. Water and food (NAFAG lab chow pellets NAFAG, Gossau, Switzerland) are available ad libidum.
The guide cannula is placed on the dura. Injection cannulas extend the guide cannulas −3.8 mm ventrally to the skull surface. Animals are allowed at least 4 days of recovery postoperatively before being used in the experiments. Cannula placement is checked postoperatively by testing all rats for their drinking response to a 50 ng intracerebroventricular (i.c.v.) injection of angiotensin II. Only rats which drink at least 2.5 ml of water within 30 min. after angiotensin II injection are used in the feeding studies.
All injections are made in the morning 2 hours after light onset. Peptides are injected in artificial cerebrospinal fluid (ACSF) in a volume of 5 μl.
Pellets are then removed from the cage subsequently at each selected time point and replaced with a new set of preweighed pellets. The food intake of animals treated with test compound may be calculated as a percentage of the food intake of control animals i.e., animals treated with vehicle. Alternatively, food intake for each group of animals subjected to a particular experimental condition may be expressed as the mean±S.E.M. Statistical analysis is performed by analysis of variance using the Student-Newman-Keuls test.
Food intake is reported as the mean±S.E.M. intake for a group of animals.
The target of a further assay is human 5HT1Dα receptor (Homo sapiens, UniProt P28221). Description: Binding to human 5HT1Dα receptor, [3H]serotonin.
Chain of human 5HT1Dα receptor (P28221 whole entry): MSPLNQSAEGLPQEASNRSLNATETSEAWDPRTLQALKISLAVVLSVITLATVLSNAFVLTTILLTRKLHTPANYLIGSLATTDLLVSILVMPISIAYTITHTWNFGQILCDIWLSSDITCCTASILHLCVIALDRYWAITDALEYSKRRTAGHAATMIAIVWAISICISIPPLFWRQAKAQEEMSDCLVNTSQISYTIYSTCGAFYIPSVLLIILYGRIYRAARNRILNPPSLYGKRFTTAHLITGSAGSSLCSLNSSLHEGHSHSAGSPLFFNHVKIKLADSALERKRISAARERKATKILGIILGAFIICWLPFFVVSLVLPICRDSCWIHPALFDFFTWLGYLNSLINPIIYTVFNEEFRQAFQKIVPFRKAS
The next assay deals with T4, human α2C receptor (Homo sapiens, UniProt P18825).
T4 sequence (P18825 1-462): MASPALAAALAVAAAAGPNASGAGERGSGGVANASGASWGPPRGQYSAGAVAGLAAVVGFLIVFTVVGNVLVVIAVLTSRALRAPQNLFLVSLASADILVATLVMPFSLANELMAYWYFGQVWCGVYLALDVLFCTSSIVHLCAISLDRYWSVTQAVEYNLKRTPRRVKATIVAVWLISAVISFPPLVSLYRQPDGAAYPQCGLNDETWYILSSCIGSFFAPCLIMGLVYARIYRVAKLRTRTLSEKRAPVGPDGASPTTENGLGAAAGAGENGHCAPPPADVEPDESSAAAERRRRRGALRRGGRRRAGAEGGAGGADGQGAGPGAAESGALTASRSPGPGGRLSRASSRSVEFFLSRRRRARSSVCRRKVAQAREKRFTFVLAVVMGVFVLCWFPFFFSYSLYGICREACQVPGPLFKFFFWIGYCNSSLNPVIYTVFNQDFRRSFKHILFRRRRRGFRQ
Kind of assay: Binding to cloned human α2C adrenergic receptor, [3H]rauwolscine.

pKi: −log10 of the molar value. Several values for one entry are separate records, joined by “and”; a condition that tells them apart may be missing. Identical values can stand only once. Counter-ions that a name gives are not always drawn. Like-named read-outs stand apart in the source and are kept apart here.

Chain of human Y4 receptor (P50391 whole entry): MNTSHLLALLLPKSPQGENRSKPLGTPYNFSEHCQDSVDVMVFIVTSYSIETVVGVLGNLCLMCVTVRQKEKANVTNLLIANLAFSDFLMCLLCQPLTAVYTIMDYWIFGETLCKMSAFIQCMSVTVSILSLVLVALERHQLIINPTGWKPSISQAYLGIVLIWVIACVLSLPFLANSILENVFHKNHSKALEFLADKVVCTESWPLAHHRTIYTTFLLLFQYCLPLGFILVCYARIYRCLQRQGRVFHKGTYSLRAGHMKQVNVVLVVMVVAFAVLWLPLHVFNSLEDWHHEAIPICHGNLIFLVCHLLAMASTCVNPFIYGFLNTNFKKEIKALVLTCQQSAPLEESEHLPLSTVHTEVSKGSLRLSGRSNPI

Regarding `Cl.Cl.O=[N+]([O-])c1ccccc1S(=O)(=O)NCC1CCC(CNCc2ccc3ccccc3n2)CC1` (centres unmarked) [Compound 26], the values for the Ki on human Y4 receptor, at human Y1 receptor and on human Y2 receptor were 19300 nM, 23700 nM and 58200 nM, respectively. The “Two-hour food intake of food-deprived rats, Mean (%)” value (from here on “Two-hour food intake … (%)”) in [1] was 73%.
The pKi is the Ki on a negative log10 scale, so that one unit is a factor of ten. A high value points to a low Ki. Consider `Cl.c1ccc(Nc2nc(Nc3ccccc3)c3ccccc3n2)cc1` [Compound 1, 2,4-Diphenylamino-quinazoline Hydrochloride], for which the pKi at human 5HT1F receptor and on human 5HT1E receptor was ≤ 5.30 throughout. The Ki at human 5HT1Dβ receptor was ≥ 5.01 µM. Also, the “Two-hour food intake … (%)” value in assay [1] is 34%. In assay [2], the “Food intake (g) mean ± S.E.M., NPY + compound” value (shortened to “Food intake … NPY + compound”) amounted to 4.6 ± 0.6 g.
With `Cl.O=S(=O)(NC[C@H]1CC[C@H](CNCC2CCc3ccccc3C2)CC1)c1ccc2ccccc2c1` (some centres unmarked) [Compound 17], in assay [1], the “Two-hour food intake … (%)” value was 27%. For the same compound, the “Food intake … NPY + compound” value in assay [2] was 3.8 ± 0.4 g.
For `Nc1nc(NCCCCCCNS(=O)(=O)c2cccc3ccccc23)nc2ccccc12` [Compound 2, Naphthalene-1-sulfonic Acid [6-(4-amino-quinazolin-2-ylamino)-hexyl]-amide], in assay [1], the “Two-hour food intake … (%)” value is recorded as 42%.
Take `O=S(=O)(NC[C@H]1CC[C@H](CNC(CO)Cc2ccc(Cl)cc2)CC1)c1cccc2ccccc12` (some centres unmarked) [Compound 25]: the pKi at human 5HT1F receptor was ≤ 5.30; on human Y4 receptor, 4.88; at human 5HT1E receptor, ≤ 5.30; at human Y2 receptor, 6.07. Moreover, the “Two-hour food intake … (%)” value in assay [1] is recorded as 32%.
`CNS(=O)(=O)Cc1ccc(Nc2nc(Nc3ccccc3)c3cc(OC)ccc3n2)cc1.Cl` [Compound 10, N-Methyl-[4-(6-methoxy-4-phenylamino-quinazolin-2-ylamino)-phenyl]-methanesulfonamide Hydrochloride]: the pKi on human 5HT1F receptor, at human 5HT1E receptor and on human 5HT1Dα receptor was ≤ 5.30 throughout. For the same compound, at human 5HT1Dβ receptor, the Ki is ≥ 5.01 µM. The “Two-hour food intake … (%)” value in assay [1] was found to be 74%.
Take `COc1ccc(Nc2nc(Nc3ccccc3)c3cccc(OC)c3n2)cc1.Cl` [Compound 9, 8-Methoxy-2-(4-methoxy-phenylamino)-4-phenylamino-quinazoline Hydrochloride]: the pKi on human 5HT1F receptor, on human 5HT1E receptor and on human 5HT1Dα receptor was ≤ 5.30 each time. At human 5HT1Dβ receptor, the Ki was ≥ 5.01 µM. Also, the “Two-hour food intake … (%)” value in [1] amounted to 40%.
Consider `CC(=O)O[C@H]1CC[C@H](Nc2nc(Nc3ccccc3)c3ccccc3n2)CC1` [Compound 7, trans-2-(4-Acetoxy-cvclohexylamino)-4-phenylamino-quinazoline Hydrochloride], for which the pKi on human 5HT1F receptor and on human 5HT1E receptor was ≤ 5.30 in each case. In addition, the Ki on human 5HT1Dβ receptor was ≥ 5.01 µM.
As to `Cl.Nc1nc(NC[C@H]2CC[C@H](CNS(=O)(=O)c3cccc4ccccc34)CC2)nc2ccccc12` [Compound 5, trans-Naphthalene-1-sulfonic Acid {4-[(4-amino-quinazolin-2-ylamino)-methyl]-cyclohexylmethyl}-amide Hydrochloride], the negative logarithm of the Ki (pKi) at human 5HT1F receptor and on human 5HT1E receptor was ≤ 5.30 each time. For the same compound, in assay [2], the “Food intake … NPY + compound” value came to 4.1 ± 0.4 g.
For `c1ccc(Nc2nc(Nc3ccc(N4CCCCC4)cc3)nc3ccccc23)cc1` [Compound 6, 2-[4-(Piperidin-1-yl)-phenylaminol-4-phenylamino-quinazoline Dihydrochloride], the pKi at human 5HT1F receptor, at human 5HT1E receptor and on human 5HT1Dα receptor was ≤ 5.30 each time. Further, the Ki at human 5HT1Dβ receptor is ≥ 5.01 µM. In addition, the “Two-hour food intake … (%)” value in [1] is on record as 38%. The “Receptor (pKi) α2c” value on human α2C receptor is on record as 6.35.
In the case of `CNS(=O)(=O)Cc1ccc(Nc2nc(Nc3ccccc3)c3ccccc3n2)cc1.Cl` [Compound 11, N-Methyl-[4-(4-phenylamino-quinazolin-2-ylamino)-phenyl]-methanesulfonamide Hydrochloride], the pKi at human 5HT1F receptor, on human 5HT1E receptor and on human 5HT1Dα receptor was ≤ 5.30 in each case. Besides, on human 5HT1Dβ receptor, the Ki was ≥ 5.01 µM. Further, in [1], the “Two-hour food intake … (%)” value turned out to be 15%.
With `Cl.O=S(=O)(NCC1CCC(CNCc2cccc3ccccc23)CC1)c1ccccc1C(F)(F)F` (centres unmarked) [Compound 23], the results for the Ki at human Y4 receptor, on human Y1 receptor and at human Y2 receptor were 21500 nM, 14500 nM and 617 nM, respectively. Moreover, the “Two-hour food intake … (%)” value in assay [1] was 58%.
As for “NPY: neuropeptide Y, species not given (Table 1, cited text); in Table 15 300 pmole porcine NPY i.c.v. [reference compound]”, the “Food intake (g) mean ± S.E.M., NPY” value in [2] (300 pmole NPY i.c.v. alone, cumulative intake 4 hours after NPY, one value per compound experiment) is 7.4 ± 0.5 g and 6.8 ± 1.0 g and 5.8 ± 0.5 g and 4.9 ± 0.4 g.
Consider `Cl.O=S(=O)(NCC1CCC(CNCc2ccc3ccccc3c2)CC1)c1ccccc1C(F)(F)F` (centres unmarked) [Compound 21], for which the values for the Ki at human Y4 receptor, on human Y1 receptor and on human Y2 receptor were 18500 nM, 13000 nM and 1610 nM, respectively. Moreover, the “Two-hour food intake … (%)” value in assay [1] came out at 80%.
